This is an account of results in patent publication US20140323511A1, “CHEMOTHERAPEUTIC FOR INDUCING AN MSH2 DEPENDENT APOPTOTIC PATHWAY” (Wake Forest University Health Sciences, priority 2013, published 2014).

pIC50: −log10 of the molar value. A value given as a limit tells only on which side of the number the result lay.

The test system of data set [1] is HEC59 cells (msh2 deficient). Nature of the data set: Cell viability assay (CellTiter 96 Aqueous One Solution), MSH2-deficient endometrial cells. Conditions: Homo sapiens; HEC59, drug 24 hours; graphs not reaching 50% mortality were extrapolated; NA = data did not reach below 50%, no extrapolation possible; read-out: 50IC MSH2 deficient. In kind it is cell-based. On the procedure: (§1) HEC59 cells (msh2 deficient) and the paired cell line HEC59 chr. that restores the MSH2-deficiency via chromosome transfer have been extensively characterized (Umar et al., 1997). Cells were grown in standard growth media (DMEM-F12+10% FBS). Cells were plated in microtiter plates at an appropriate concentration in 100 μl media and incubated overnight. Media was replaced with media containing drug and allowed to incubate for 24 hours at indicated concentrations. Untreated cells received fresh media with vehicle only. One solution reagent (CellTiter 96)(r) Aqueous One Solution) was added to existing media (20 μl/well) and allowed to incubate 3-4 hrs. A plate reader was used to record the absorbance at 490 nm. Assays were performed at least in triplicates. Cell viability at each concentration was analyzed for IC50 values using GraphPad Prism 4™. Graphs represent mean values and standard deviations.
(§2) We next tested these new rescinnamine analogs in a well-defined cellular system with an endometrial cell line deficient (HEC59) and proficient (via chromosome transfer, HEC59+chr.2) for MSH2. […] No significant difference was detected when determining the IC50 values.

Data set [2] has as its system HEC59+chr.2 (MSH2 proficient via chromosome transfer). The data set can be described thus: Cell viability assay (CellTiter 96 Aqueous One Solution), MSH2-proficient endometrial cells. The data set is classed as cell-based. The note with it: Homo sapiens; HEC59+chr.2, drug 24 hours; graphs not reaching 50% mortality were extrapolated; NA = data did not reach below 50%, no extrapolation possible; read-out: 50IC MSH2 proficient. On the procedure:
as §1, §2

The next data set relates to HEC59 and HEC59+chr.2. The data set can be described thus: Cell viability compared between the paired MSH2-deficient and MSH2-proficient endometrial cell lines. In kind it is cell-based, human. The note with it: for cell killing: endometrial cell line deficient (HEC59) and proficient (HEC59+chr.2) for MSH2, data not shown; for change of IC50 when MSH2 is present: HEC59+chr.2 vs HEC59; for change in sensitivity to MSH2: comparison of isomers, MSH2 proficient vs deficient IC50; for difference between MSH2-proficiency and deficiency (MSH2-dependence of cell killing): HEC59 vs HEC59+chr.2. The procedure: as §1, §2

Another data set has as its system MSH2. The note with it: previously shown (Vasilyeva 2009, 2010); cited from earlier work.
A further data set deals with ovarian cancer cells. Nature of the data set: Overcoming resistance to cisplatin in ovarian cancer cells. In kind it is cell-based. Conditions: data not shown.
In the next data set the test system is SW416 or HEC59 cells. Nature of the data set: Xenograft model. The data set is classed as in vivo, mice. On the procedure: SW416 or HEC59 cells in PBS mixed with Matrigel (1:1; BD Biosciences) were subcutaneously injected into the flank of nude donor mice. Tumors were grown for up to 3 weeks. Mice were euthanized, tumors excised, minced into 3 mm pieces, and surgically implanted into the right flank of acceptor mice (10 per group). Isoflurane anesthesia was provided during tumor inoculation. Injection of compounds was started 3 days following tumor implantation to allow recovery from surgery. Compounds were given intraperitoneally, in a volume of 0.5 ml/mouse with a ¼ inch, 23-gauge needle in a 6 ml plastic syringe. Mice were monitored based on survival and body weight. Tumor size, measured by caliper, and body weight were monitored […] for 57 days, and the prolongation of median survival time after ip treatment determined. Any animals showing signs of distress, unnatural movements, severe loss of appetite, severe signs of hypotension, tumor size of […], or weight loss exceeding 10% before the end of the study were euthanized. Tumors were measured twice a week for each group. Tumor volume is calculated as length(mm)×width (mm)^2. Initial measurements were performed when the tumor reached 150-200 mg. Tumor weight (in mg) is calculated as tumor weight (mg)[…](length(mm) of tumor×width (mm) of tumor^2)/2.

Turning to `COC(=O)[C@H]1[C@H]2C[C@@H]3c4[nH]c5cc(OC)ccc5c4CCN3C[C@H]2C[C@@H](OC(=O)/C=C/c2cc(OC)c(O)c(OC)c2)[C@@H]1OC` [SA-I-027], the pIC50 in data set [1] was 4.32; in data set [2] it was 4.26. For the same molecule, the cell killing result in the data set with HEC59 and HEC59+chr.2 is recorded as “induced cell killing in the micromolar range”.

On to `COC(=O)[C@H]1[C@H]2C[C@@H]3c4[nH]c5cc(OC)ccc5c4CCN3C[C@H]2C[C@@H](OC(=O)c2cc(OC)c(OC)c(OC)c2)[C@@H]1OC` [reserpine], for which, in the data set on MSH2, the “induction of MSH2-dependent cell death” value is reported as “capable of inducing cell death in an MSH2-dependent manner”.

`C=CC(=O)O[C@@H]1C[C@@H]2CN3CCc4c([nH]c5cc(OC)ccc45)[C@H]3C[C@@H]2[C@H](C(=O)OC)[C@H]1OC` [SA-I-03, Acryloyl Reserpate] registered a melting point above 260 °C. Also, the pIC50 in data set [1] was 4.68. For the same molecule, the pIC50 in data set [2] was 4.69. The cell killing entry with HEC59 and HEC59+chr.2 is given as “induced cell killing in the micromolar range”.

As to `COC(=O)[C@H]1[C@H]2C[C@@H]3c4[nH]c5cc(OC)ccc5c4CCN3C[C@H]2C[C@@H](OC(=O)/C=C/c2ccc(OC)c(C(=O)O)c2)[C@@H]1OC` [SA-I-015], the pIC50 in data set [1] is 4.05; in data set [2], 4.07.

In the case of `COC(=O)[C@H]1[C@H]2C[C@@H]3c4[nH]c5cc(OC)ccc5c4CCN3C[C@H]2C[C@@H](OC(=O)/C=C/c2ccc(OC)c(O)c2)[C@@H]1OC` [SA-I-020], the pIC50 in data set [1] was 4.65; in data set [2], 4.67. In addition, in the data set with HEC59 and HEC59+chr.2, the cell killing entry is on record as “induced cell killing in the micromolar range”.

For `COC(=O)[C@H]1[C@H]2C[C@@H]3c4[nH]c5cc(OC)ccc5c4CCN3C[C@H]2C[C@@H](OC(=O)/C=C/c2ccc(C(=O)O)c(OC)c2)[C@@H]1OC` [SA-I-013], the pIC50 in data set [1] is 3.79. The pIC50 in data set [2] is 2.91. In the data set on HEC59 and HEC59+chr.2, the “change of IC50 when MSH2 is present” value was “reduction in IC50 when MSH2 is present” and the “change in sensitivity to MSH2” value was around 8 fold.

Turning to `COC(=O)[C@H]1[C@H]2C[C@@H]3c4[nH]c5cc(OC)ccc5c4CCN3C[C@H]2C[C@@H](OC(=O)/C=C/c2cc(OC)c(OC)c(OC)c2)[C@@H]1OC` [rescinnamine], the “overcoming resistance to cisplatin” value with ovarian cancer cells was “capable of overcoming resistance to cisplatin in ovarian cancer cells”. In the data set on SW416 or HEC59 cells, the “hypotensive activity limiting the dose” value was “hypotensive activity of the drug prevented administration of statistically effective doses”. For the same molecule, in the data set with SW416 or HEC59 cells (data not shown), the tumor inhibition entry is on record as “significant trend toward tumor inhibition”. For the same molecule, in the data set on MSH2, the “induction of MSH2-dependent cell death” value is recorded as “capable of inducing cell death in an MSH2-dependent manner”.

For the molecule `COC(=O)[C@H]1[C@H]2C[C@@H]3c4[nH]c5cc(OC)ccc5c4CCN3C[C@H]2C[C@@H](OC(=O)/C=C/c2ccc(O)c(OC)c2)[C@@H]1OC` [SA-I-016], the “difference between MSH2-proficiency and deficiency (MSH2-dependence of cell killing)” value with HEC59 and HEC59+chr.2 is “small difference between MSH2-proficiency and deficiency”.

Take `COC(=O)[C@H]1[C@H]2C[C@@H]3c4[nH]c5cc(OC)ccc5c4CCN3C[C@H]2C[C@@H](OC(=O)/C=C/c2ccc(N)c(OC)c2)[C@@H]1OC` [SA-I-039]: the pIC50 in data set [1] was 4.07. Besides, in data set [2], the pIC50 is 4.17. Moreover, in the data set on HEC59 and HEC59+chr.2, the “difference between MSH2-proficiency and deficiency (MSH2-dependence of cell killing)” value is “small difference between MSH2-proficiency and deficiency”; the “change in sensitivity to MSH2” value was around 2 fold; the cell killing entry is listed as “induced cell killing in the micromolar range”.

On to `COC(=O)[C@H]1[C@H]2C[C@@H]3c4[nH]c5cc(OC)ccc5c4CCN3C[C@H]2C[C@@H](OC(=O)/C=C/c2ccc(OC)c(N)c2)[C@@H]1OC` [SA-I-029], for which the pIC50 in data set [1] is 4.11. For the same molecule, in data set [2], the pIC50 was 3.95. In the data set on HEC59 and HEC59+chr.2, the “change of IC50 when MSH2 is present” value is recorded as “reduction in IC50 when MSH2 is present” and the “change in sensitivity to MSH2” value is recorded as around 2 fold.

`COC(=O)[C@H]1[C@H]2C[C@@H]3c4[nH]c5cc(OC)ccc5c4CCN3C[C@H]2C[C@@H](OC(=O)/C=C/c2ccc(OC)c(OC(C)=O)c2)[C@@H]1OC` [SA-I-019]: in data set [1], the pIC50 was 4.41. Also, in the data set with HEC59 and HEC59+chr.2, the cell killing result was “induced cell killing in the micromolar range”.

Consider `CCC(=O)O[C@@H]1C[C@@H]2CN3CCc4c([nH]c5cc(OC)ccc45)[C@H]3C[C@@H]2[C@H](C(=O)OC)[C@H]1OC` [SA-I-058, Propionoyl Reserpate], for which the melting point was determined as 258 °C.

Take `COC(=O)c1cc(/C=C/C(=O)O[C@@H]2C[C@@H]3CN4CCc5c([nH]c6cc(OC)ccc56)[C@H]4C[C@@H]3[C@H](C(=O)OC)[C@H]2OC)ccc1OC` [SA-I-012]: the figures for the pIC50 in data set [1] and in data set [2] were 4.29 and 4.31, respectively.
